Experiment [1] is described as follows: ELISA with seronegative / negative control sera (specificity). It counts as binding, human. The protocol: (§1) Where peptides were to be coated directly, stock solutions of the peptides were diluted in sodium carbonate buffer, pH 9.6 and used to coat polystyrene microtiter plates at a peptide concentration of 2 to 5 micrograms per milliliter for 1 hour at 37° C.
(§2) In cases where biotinylated peptides were to be evaluated, plates were first coated with streptavidin in sodium carbonate buffer, pH 9.6 at a concentration of 3 micrograms per milliliter for 1 hour at 37° C. The plates were then washed to remove excess, unbound protein. A working solution of the biotinylated peptide at 1 microgram per milliliter in sodium carbonate buffer was then added to the wells of the microtiter plate and incubated for 1 hours at 37° C.
(§3) Once the plates had been coated with antigen, any remaining free binding sites on the plastic were blocked with casein. After washing, a dilution of the appropriate antisera, usually 1:100, was added to the wells of the plates and incubated for 1 hour at 37° C.
(§4) After washing to remove unbound material, specific antibody binding was detected by incubating the plates with goat anti-human immunoglobulin antibodies conjugated to the enzyme horseradish peroxidase. Following removal of unbound conjugate by washing, a solution containing H2O2 and 3,3′,5,5′-tetramethylbenzidine was added.
(§5) Reactions were stopped after a suitable interval by addition of sulfuric acid. […] Absorbance measurements were made at a wavelength of 450 nanometers and all data are expressed as an optical density value at this wavelength.
(§6) Unbiotinylated HCV peptide I was coated directly onto the wells of a polystyrene ELISA plate at a concentration of 3 micrograms per milliliter in sodium carbonate buffer, pH 9.6. Biotinylated HCV peptide I was bound to streptavidin-coated wells using a stock solution containing the peptide at a concentration of 1 microgram per milliliter. The resulting plates were then incubated in parallel with a panel of sera from HCV-seropositive donors. […] Two of the sera (8326 and 8244) recognize the biotinylated version of this peptide far better than the unbiotinylated version. The specificity of the antibody reaction is also reflected by the low optical density values obtained for 5 serum samples from uninfected donors (F88, F89, F76, F136, and F6).
To determine how well biotinylated peptides would function in a mixture when bound to streptavidin- or avidin-coated plates, two mixtures were made of the N-terminally biotinylated versions of the HIV-1 peptides TM-HIV-1 (hereabove referred to as 1a.1) and V3-nm (hereabove referred to as 1b.4), the HIV-2 peptide TM-HIV-2 (hereabove referred to as 2a), and the hepatitis C virus peptides II, IX, and XVIII. Mixture A contained each of the six biotinylated peptides at a concentration of 1 microgram per milliliter (6 micrograms per milliliter peptide, total) while in mixture B, each peptide was present at a concentration of 0.1 microgram per milliliter (0.6 microgram per milliliter peptide, total). The individual peptides were coated at a concentration of 1 microgram per milliliter. For purposes of comparison, mixtures A and B were also coated directly onto the wells of a microtiter plate. Samples from HIV-1, HIV-2, and HCV-seropositive donors were tested and compared to sera from seronegative blood donors. A cut-off absorbance value of 0.250 was used to determine whether a reaction was positive or negative. Absorbance values equal or greater than 0.250 were considered positive while absorbance values below this value were considered negative.
Background: In an ELISA, binding on a coated surface is turned into a signal by an enzyme label.

Experiment [2] concerns antibodies in sera from HCV-seropositive donors. Briefly: ELISA with HCV antibody-positive sera (biotinylated peptides on streptavidin- or avidin-coated plates, unbiotinylated peptides coated directly). It counts as binding, human. To be noted: for PEPTIDE ELISA (O.D.): Table 12, biotinylated 20-mers. The protocol:
as §1, §2, §3, §4, §5
The unbiotinylated peptides were adsorbed onto the wells of polystyrene microtiter plates at a concentration of 3 micrograms per milliliter.
The biotinylated peptides were bound at a concentration of 1 microgram per milliliter to streptavidin-coated microtiter plates. Sera known to contain antibodies to these peptides were used for the evaluation and were tested at a 20-fold dilution.
To investigate further the enhanced antibody recognition of biotinylated HCV peptides bound to streptavidin or avidin as compared to direct adsorption on plastic, the influence of peptide coating concentration was investigated. Three peptides (HCV peptides II, XI, and XVI) were coated in concentrations ranging from 10 nanograms per milliliter to 3 micrograms per milliliter in a volume of 200 microliters per microtiter plate well. For direct coating, the unbiotinylated versions of these peptides were used. The biotinylated versions of these peptides were used to coat wells to which streptavidin had previously been adsorbed. Sera known to contain antibodies to these peptides were used at a dilution of 1 to 100 to evaluate the magnitude of antibody binding.
as §6
To determine how well biotinylated peptides would function in a mixture when bound to streptavidin- or avidin-coated plates, two mixtures were made of the N-terminally biotinylated versions of the HIV-1 peptides TM-HIV-1 (hereabove referred to as 1a.1) and V3-nm (hereabove referred to as 1b.4), the HIV-2 peptide TM-HIV-2 (hereabove referred to as 2a), and the hepatitis C virus peptides II, IX, and XVIII. […]

Where [3] appears, read: Table 4E, serum 8272, 20-fold dilution.
Setting [4] is: Table 4E, serum 8273, 20-fold dilution.
[5] abbreviates: Table 4E, serum 8274, 20-fold dilution.
The mark [6] stands for this setting: Table 4E, serum 8275, 20-fold dilution.
Where [7] appears, read: Table 4E, serum 8276, 20-fold dilution.
[8] abbreviates: Table 4E, serum 8277, 20-fold dilution.
[9] abbreviates: Table 4E, serum 8278, 20-fold dilution.
[10] abbreviates: Table 4E, serum 8284, 20-fold dilution.

Ends that are not written are not given here.

For the substance “H2N-Met-Ser-Thr-Ile-Pro-Lys-Pro-Gln-Arg-Lys-Thr-Lys-Arg-Asn-Thr-Asn-Arg-Arg-Pro-Gln-CONH2 (H-MSTIPKPQRKTKRNTNRRPQ-NH2) [HCV peptide I]”, the “optical density (450 nm)” value in experiment [1] (Table 7, serum F8, HCV antibody-negative) was found to be 0.000; in experiment [1] (Table 7, serum F76, HCV antibody-negative), 0.000; in experiment [1] (Table 7, serum F88, HCV antibody-negative) it was 0.000; in experiment [1] (Table 7, serum F89, HCV antibody-negative), 0.017; in experiment [1] (Table 7, serum F136, HCV antibody-negative), 0.006; in experiment [2] (Table 7, serum 6378, HCV antibody-positive) it was 2.161. Besides, the “optical density (450 nm)” value in experiment [2] (Table 7, serum 8242, HCV antibody-positive) is recorded as 1.367; in experiment [2] (Table 7, serum 8243, HCV antibody-positive) it was 2.211; in experiment [2] (Table 7, serum 8244, HCV antibody-positive), 0.077; in experiment [2] (Table 7, serum 8248, HCV antibody-positive), 2.042; in experiment [2] (Table 7, serum 8316, HCV antibody-positive) it was 2.394; in experiment [2] (Table 7, serum 8318, HCV antibody-positive), 2.385. Further, the “optical density (450 nm)” value in experiment [2] (Table 7, serum 8320, HCV antibody-positive) stood at 2.760; in experiment [2] (Table 7, serum 8326, HCV antibody-positive) it was 0.525; in experiment [2] (Table 7, serum 8329, HCV antibody-positive), 2.633; in experiment [2] (Table 7, serum 8330, HCV antibody-positive), 1.985; in experiment [2] (Table 7, serum 8333, HCV antibody-positive), 2.143; in experiment [2] (Table 7, serum 8334, HCV antibody-positive), 2.271. Also, the “optical density (450 nm)” value in experiment [2] (Table 7, serum 8336, HCV antibody-positive) is 1.558; in experiment [2] (Table 7, serum 8344, HCV antibody-positive), 1.878; in experiment [2] (Table 7, serum 8364, HCV antibody-positive), 2.705; in experiment [2] (Table 7, serum 8374, HCV antibody-positive) it was 1.070; in experiment [2] (Table 7, serum 8387, HCV antibody-positive) it was 1.427.

“Leu-Arg-Lys-Ser-Arg-Arg-Phe-Ala-Gln-Ala-Leu-Pro-Val-Trp-Ala-Arg-Pro-Asp-Tyr-Asn [Unbiotinylated peptide XVI] (LRKSRRFAQALPVWARPDYN; printed: Leu-Arg-Lys-Ser-Arg-Arg-Phe-Ala-Gln-Ala-Leu-Pro-Val-Trp-Ala-Arg-Pro-Asp-Tyr-Asn)”: the “optical density (450 nm)” value in experiment [1] (Table 4B, negative serum) is given as 0.063; in experiment [2] (Table 4B, serum 1, 20-fold dilution), 1.038; in experiment [2] (Table 4B, serum 2, 20-fold dilution), 0.616; in experiment [2] (Table 4B, serum 6, 20-fold dilution) it was 0.100; in experiment [2] (Table 4B, serum 8, 20-fold dilution), 0.329; in experiment [2] (Table 4B, serum 10, 20-fold dilution), 1.033. The “optical density (450 nm)” value is 0.053 in experiment [2] (Table 4B, serum 26, 20-fold dilution); 0.912 in experiment [2] (Table 4B, serum 83, 20-fold dilution); 1.187 in experiment [2] (Table 4B, serum 88, 20-fold dilution); 0.495 in experiment [2] (Table 4B, serum 89, 20-fold dilution); 0.197 in experiment [2] (Table 4B, serum 91, 20-fold dilution); 0.109 in experiment [2] (Table 4B, serum 95, 20-fold dilution). Moreover, the “optical density (450 nm)” value in experiment [2] (Table 4B, serum 99, 20-fold dilution) is 0.814; in experiment [2] (Table 4B, serum 100, 20-fold dilution), 0.474; in experiment [2] (Table 4B, serum 104, 20-fold dilution), 0.205; in experiment [2] (Table 4B, serum 105, 20-fold dilution) it was 0.313; in experiment [2] (Table 4B, serum 110, 20-fold dilution) it was 0.762; in experiment [2] (Table 4B, serum 111, 20-fold dilution) it was 0.193. Besides, the “optical density (450 nm)” value in experiment [2] (Table 4B, serum 112, 20-fold dilution) came to 0.253; in experiment [2] (Table 4B, serum 113, 20-fold dilution) it was 0.833; in experiment [2] (Table 4B, serum 116, 20-fold dilution), 0.058; in experiment [2] (Table 4B, serum 120, 20-fold dilution), 0.964; in experiment [2] (Table 4B, serum 266, 20-fold dilution), 0.712; in experiment [2] (Table 4B, serum 8247, 20-fold dilution) it was 0.059. Further, the “optical density (450 nm)” value in experiment [2] (Table 4B, serum 11476, 20-fold dilution) came out at 0.068; in experiment [2] (Table 4B, serum 24758, 20-fold dilution), 0.071.

For the substance “TRKTSERSQPRGRRQPIPKV [listing 1 of 2 here]”, the “optical density (450 nm)” value was 0.047 in experiment [1] (Table 4E, negative serum); 0.589 in experiment [2] (setting [3]); 0.294 in experiment [2] (setting [4]); 1.820 in experiment [2] (setting [5]); 1.728 in experiment [2] (setting [6]); 2.194 in experiment [2] (setting [7]). Further, the “optical density (450 nm)” value in experiment [2] (setting [8]) was found to be 0.770; in experiment [2] (setting [9]), 1.391; in experiment [2] (setting [10]) it was 0.040.

Turning to “TRKTSERSQPRGRRQPIPKV [listing 2 of 2 here]”, the “optical density (450 nm)” value in experiment [1] (Table 4E, negative serum) came to 0.070; in experiment [2] (setting [3]) it was 1.220; in experiment [2] (setting [4]), 1.026; in experiment [2] (setting [5]), 2.662; in experiment [2] (setting [6]), 1.724; in experiment [2] (setting [7]), 2.616. For the same substance, the results for the “optical density (450 nm)” value in experiment [2] (setting [8]), in experiment [2] (setting [9]) and in experiment [2] (setting [10]) were 1.796, 1.746 and 0.757, respectively. Besides, the “PEPTIDE ELISA (O.D.)” value in experiment [2] (serum 0843) came to 1.378; in experiment [2] (serum 8240), 2.021; in experiment [2] (serum 8241), 0.274; in experiment [2] (serum 8242), 2.315; in experiment [2] (serum 8332), 1.455; in experiment [2] (serum 8339), 2.598. In addition, the “PEPTIDE ELISA (O.D.)” value in experiment [2] (serum 8350) came to 0.685; in experiment [2] (serum 8377) it was 0.076; in experiment [2] (serum 8378), 1.228; in experiment [2] (serum 8388), 2.162.

(Values after patent US6667387B1, “HCV core peptides” (priority 1992, dated 2003).)
